Results as given in PMC9492458, “Development and structure–activity relationships of tanshinones as selective 11β-hydroxysteroid dehydrogenase 1 inhibitors” (Natural Products and Bioprospecting, 2022).
Read-outs that look alike come from different tables or passages of the source.

How the values were obtained:
human 11β-HSD1 = human 11β-HSD1 (Homo sapiens, UniProt P28845); test: scintillation proximity assay (SPA), microsomes of HEK-293 cells transfected with human 11β-HSD1; conditions: for Human SI (selectivity index): SI = IC50(HSD2)/IC50(HSD1); for inhibition at 1 µM: read-out: Inhibitory ratio h-HSD1, at 1.0 μM, averages of three determinations
Chain of human 11β-HSD1 (P28845 whole entry): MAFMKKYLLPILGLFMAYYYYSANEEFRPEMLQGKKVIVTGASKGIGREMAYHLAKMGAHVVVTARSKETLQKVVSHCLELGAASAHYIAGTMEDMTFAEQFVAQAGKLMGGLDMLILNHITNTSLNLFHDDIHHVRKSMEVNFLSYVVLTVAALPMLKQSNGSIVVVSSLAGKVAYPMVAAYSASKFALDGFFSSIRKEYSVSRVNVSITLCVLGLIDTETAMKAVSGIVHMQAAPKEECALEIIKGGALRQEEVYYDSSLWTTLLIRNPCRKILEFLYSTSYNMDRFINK
Protocol: (§1) With diverse tanshinones in hand, inhibition of human and mouse 11β-HSD1 enzymatic potency was measured by scintillation proximity assay (SPA) using microsomes containing 11β-HSD1 [46, 47]. Results are reported as the average of two or three independent experiments at each concentration.
(§2) The SPA was used to screen for inhibitors of 11β-HSDs [48], with the microsome fractions prepared from the HEK-293 cells stably transfected with either human or mouse 11β-HSD1 or 11β-HSD2 as the enzyme source. […] Reactions were initiated by the addition of 11β-HSD1 or 11β-HSD2, enzyme. […] The plates were incubated under plastic film on an orbital shaker for 120 min at room temperature before counting. The amount of [^3H]-cortisol generated in 11β-HSD1 enzyme reaction or remaining from the 11β-HSD2 enzyme reaction was captured by the beads and determined in a microplate liquid scintillation counter. The % inhibition was calculated relative to a non-inhibited control. Data were obtained from two or three independent experiments. IC50 values were calculated from concentration–response curves by a non-linear regression analysis using Prism Version 6.

mouse 11β-HSD2 = target: T1, mouse 11β-HSD2 (Mus musculus, UniProt P51661); test: scintillation proximity assay (SPA), microsomes of HEK-293 cells transfected with mouse 11β-HSD2
T1 sequence (P51661 1-386): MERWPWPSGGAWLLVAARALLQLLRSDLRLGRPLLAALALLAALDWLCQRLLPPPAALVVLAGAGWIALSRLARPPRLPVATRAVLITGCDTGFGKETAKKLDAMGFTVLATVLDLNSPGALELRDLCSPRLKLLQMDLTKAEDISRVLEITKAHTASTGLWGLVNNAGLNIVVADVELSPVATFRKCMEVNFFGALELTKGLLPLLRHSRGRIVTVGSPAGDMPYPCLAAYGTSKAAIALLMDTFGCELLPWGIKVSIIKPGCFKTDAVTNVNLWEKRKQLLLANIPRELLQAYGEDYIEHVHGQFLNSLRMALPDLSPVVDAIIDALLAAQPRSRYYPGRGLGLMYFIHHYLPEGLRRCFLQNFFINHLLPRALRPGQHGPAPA
Protocol: as §1, §2

[1] = target: T2, 11β-HSD1 in 3T3-L1 adipocytes (Mus musculus, UniProt P50172); test: 11β-HSD1 activity assay in 3T3-L1 adipocytes; assay type: cell-based; conditions: for IC50: 1 h incubation, averages of three determinations, read-out: IC50, cellular assay on 3T3-L1 adipocyte against 11β-HSD1; for Emax: inhibition relative to MK544 10 μM, read-out: Max effect
T2 construct: endogenous in cells; host or cells: 3T3-L1 adipocytes
T2 sequence (P50172 whole entry): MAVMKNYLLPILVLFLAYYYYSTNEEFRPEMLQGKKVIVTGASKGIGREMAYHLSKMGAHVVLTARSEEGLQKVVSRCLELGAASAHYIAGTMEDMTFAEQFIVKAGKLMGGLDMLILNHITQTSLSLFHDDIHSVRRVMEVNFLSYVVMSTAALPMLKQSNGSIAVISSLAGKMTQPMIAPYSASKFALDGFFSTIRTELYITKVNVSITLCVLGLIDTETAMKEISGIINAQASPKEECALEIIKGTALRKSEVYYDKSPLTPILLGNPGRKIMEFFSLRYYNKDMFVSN
Protocol: 11β-HSD1 enzyme inhibition in adipose tissue is believed to be important for achieving efficacy in vivo [11, 12]. Derivatives with potent enzymatic potency and excellent selectivity profiles (13, 14, 17, 28a, 28b and 30) were also evaluated their 11β-HSD1 inhibition in 3T3-L1 adipocyte.
The reductase activity of 11β-HSD1 in intact 3T3-L1 adipocytes was determined by measuring the rate of conversion of cortisone to cortisol. To explore the effect of compounds on 11β-HSD1 reductase activity, 3T3-L1 adipocytes were incubated for 1 h at 37 °C in serum-free DMEM containing 6.25 nmol/L [1,2-(N)^3H]-cortisone and different concentrations of compounds, according to experimental design. 0.1% DMSO was set as the vehicle control and MK544 was set as the positive control. At the end of the incubation, 80 μL of medium was pipetted into a transparent bottom 96-well plate, and 35 μL of SuperBlock Blocking Buffer containing 10 g/L of protein A-coated yttrium silicate beads and 3 mg/L of anti-cortisol antibodies was added. The mixtures were shaken in the dark for 2 h and then used for liquid scintillation readings. The inhibition effect was calculated by the following equation: Inhibition%=Data(compound)-Data(DMSO Vehicle)/Data(MK54410μM)-Data(DMSO Vehicle)×100%.

mouse 11β-HSD1 = mouse 11β-HSD1 (Mus musculus, UniProt P50172); test: scintillation proximity assay (SPA), microsomes of HEK-293 cells transfected with mouse 11β-HSD1; conditions: for Mouse SI (selectivity index): SI = IC50(HSD2)/IC50(HSD1); for inhibition at 1 µM: read-out: Inhibitory ratio m-HSD1, at 1.0 μM, averages of three determinations
Chain of mouse 11β-HSD1 (P50172 whole entry): as above
Protocol: as §1, §2

11β-HSD1 in liver = target: T3, 11β-HSD1 in liver (Mus musculus, UniProt P50172); test: Measurement of 11β-HSD1 activity in liver of ob/ob mice; assay type: in vivo; conditions: single oral dose 300 mg/kg
T3 construct: from tissue
T3 sequence (P50172 whole entry): as above
Protocol: After single oral administration of 1, 17 or 30 at dose of 300 mg/kg to ob/ob mice, the enzymatic activity of 11β-HSD1 in liver was measured.
B6.V-Lepob/Lepob mice (Jackson Laboratory, Bar Harbor, ME, USA) were bred at the Shanghai Institute of Materia Medica, Chinese Academy of Sciences. All mice were housed in a specific, pathogen-free class laboratory and were maintained at a controlled room temperature (22–24 °C) under a 12 h light–dark cycle with free access to water and food. The animal experiments were conducted in accordance with the guides by the Institutional Animal Care and Utilization Committee (IACUC) of Shanghai Institute of Materia Medica (SIMM), Chinese Academy of Sciences (CAS). The protocol was approved by the IACUC, SIMM, CAS with accreditation number of 2017-08-LY-67. All animal experiment complied with the ARRIVE guidelines for the care and use of laboratory animals.
Ob/ob mice (10 weeks’ old) were given a single dose of 1, 17, 30 (300 mg/kg) or vehicle (0.5% carboxymethyl cellulose, CMC), p.o. After 4 h and 8 h, animals were euthanized with an i.p injection of sodium pentobarbital (60 mg/kg) and the livers were isolated and stored as described above. The liver tissue was homogenized (1 mg/mL) in cold homogenization buffer, and […] of liver homogenates was used to analyze the 11β-HSD1 activity by SPA, as previously described.

human 11β-HSD2 = target: T4, human 11β-HSD2 (Homo sapiens, UniProt P80365); test: scintillation proximity assay (SPA), microsomes of HEK-293 cells transfected with human 11β-HSD2
T4 sequence (P80365 1-405): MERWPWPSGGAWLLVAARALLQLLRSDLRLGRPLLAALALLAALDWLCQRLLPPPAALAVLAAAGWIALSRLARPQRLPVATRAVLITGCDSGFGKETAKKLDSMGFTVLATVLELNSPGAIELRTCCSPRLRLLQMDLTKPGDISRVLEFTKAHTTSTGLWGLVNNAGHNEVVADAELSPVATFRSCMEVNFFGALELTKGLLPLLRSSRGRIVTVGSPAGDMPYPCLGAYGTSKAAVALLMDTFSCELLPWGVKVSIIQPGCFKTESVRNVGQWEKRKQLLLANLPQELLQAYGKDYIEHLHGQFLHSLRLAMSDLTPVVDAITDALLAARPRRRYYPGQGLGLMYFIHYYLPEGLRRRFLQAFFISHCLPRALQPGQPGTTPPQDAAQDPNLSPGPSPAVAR
Protocol: as §1, §2

Row | Compound | IC50 (human 11β-HSD1) [µM] | Human SI (selectivity index) (human 11β-HSD1; Table 1) | inhibition at 1 µM (human 11β-HSD1) [%] | IC50 (mouse 11β-HSD2) [µM] | IC50 (mouse 11β-HSD2; read-out: Mouse (IC50) 11β-HSD2, Table 3, averages of two determinations) [µM] | IC50 [1] [µM] | Emax [1] [%] | IC50 (mouse 11β-HSD1) [µM] | Mouse SI (selectivity index) (mouse 11β-HSD1; Table 1) | Mouse SI (selectivity index) (mouse 11β-HSD1; Table 3) | inhibition at 1 µM (mouse 11β-HSD1) [%] | decrease in 11β-HSD1 activity in liver (11β-HSD1 in liver; 4 h after treatment) [%] | decrease in 11β-HSD1 activity in liver (11β-HSD1 in liver; 8 h after treatment) [%] | IC50 (human 11β-HSD2) [µM] | Human SI (selectivity index) (human 11β-HSD1; Table 3)
1 | Cc1coc2c1C(=O)C(=O)c1c-2ccc2c1CCCC2(C)C [Compound 1, tanshinone IIA] | 0.0353 ± 0.0154 | 3838 | 76.6 ± 1.3 | > 1000 | > 1000 | 2 ± 0.6 | 104 ± 1 | 0.0322 ± 0.0025 | > 31,250 | > 31,055.9 | 89.6 ± 0.6 | 32.9 | 48.4 | 135 ± 72.5 | –
2 | Cc1coc2c1C(=O)C(=O)c1c-2ccc2c1C=CCC2(C)C [Compound 13] | 0.27 | – | 67.4 ± 1.6 | > 100 | – | 7.9 | 102 ± 0.3 | 0.0593 ± 0.0095 | – | > 1689.2 | 92.3 ± 2.7 | – | – | 2.7 ± 1 | 9.9
3 | Cc1coc2c1C(=O)C(=O)c1c-2ccc2c1C=CC(=O)C2(C)C [Compound 14] | 0.3 | – | 57.2 ± 2 | > 100 | – | > 4 | 104 ± 1.2 | 0.0539 ± 0.0093 | – | > 1855.3 | 85.9 ± 1.6 | – | – | 5.9 ± 3.4 | 19.6
4 | Cc1coc2c1C(=O)C(=O)c1c-2ccc2c1CCC(=O)C2(C)C [Compound 17] | 0.21 | – | 63.5 ± 3.2 | > 100 | – | 1.4 ± 0.1 | 90 ± 0.4 | 0.0069 ± 0.0007 | – | > 14,492.7 | 84.6 ± 1.4 | – | 38.5 | 5.9 ± 2.3 | 28.0
5 | Cc1c(COCO)oc2c1C(=O)C(=O)c1c-2ccc2c1CCCC2(C)C [Compound 28a] | 0.149 ± 0.0339 | – | 74.3 ± 2.1 | > 100 | – | 3.9 ± 0.1 | 104 ± 0.9 | 0.0793 ± 0.0162 | – | > 1261.0 | 79.2 ± 2.2 | – | – | 4.1 ± 0.7 | 27.5
6 | Cc1c(CO)oc2c1C(=O)C(=O)c1c-2ccc2c1CCCC2(C)C [Compound 28b] | 0.0998 ± 0.0105 | – | 75.3 ± 0.8 | > 100 | – | 3.1 ± 0.6 | 100 ± 4 | 0.0702 ± 0.0134 | – | > 1426.5 | 88.5 ± 0.1 | – | – | 6.3 ± 0.9 | 62.9
7 | CC1(C)CCCc2c1ccc1c2C(=O)C(=O)c2c(CO)coc2-1 [Compound 30] | 0.0578 ± 0.013 | – | 82 ± 2.7 | > 100 | – | 4.4 ± 0.1 | 105 | 0.0222 ± 0.0006 | – | > 4510.6 | 98.6 ± 0.7 | – | 41.2 | – | –
